Data taken from patent US10618918B2, “Substituted boronic acids as antimicrobials” (priority 2015, dated 2020).
pKi: −log10 of the molar value. Read-outs that look alike come from different tables or passages of the source.

Assays:
[1] = target: T1, purified class A, C and D enzymes (β-lactamases) (Acinetobacter baumannii, UniProt Q9L4P2); test: biochemical; type: biochemical; settings: purified OXA-23; nitrocefin (NCF) as reporter substrate
T1 construct: rows headed: Ki (OXA-23, NCF), uM; other: purified OXA-23; nitrocefin (NCF) as reporter substrate
T1 sequence (Q9L4P2 whole entry): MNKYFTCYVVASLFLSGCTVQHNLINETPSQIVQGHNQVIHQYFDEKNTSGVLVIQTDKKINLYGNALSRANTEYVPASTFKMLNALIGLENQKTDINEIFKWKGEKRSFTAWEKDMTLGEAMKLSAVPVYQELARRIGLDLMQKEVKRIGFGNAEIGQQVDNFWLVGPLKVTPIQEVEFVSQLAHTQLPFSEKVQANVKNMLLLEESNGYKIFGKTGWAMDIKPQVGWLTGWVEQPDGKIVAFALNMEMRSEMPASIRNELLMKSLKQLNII

[2] = target: T2, purified class A, C and D enzymes (β-lactamases) (Pseudomonas aeruginosa, UniProt P24735); test: biochemical; type: biochemical
T2 construct: rows headed: Ki (Pa-AmpC, NCF), uM; other: purified Pa-AmpC; nitrocefin (NCF) as reporter substrate
T2 sequence (P24735 whole entry): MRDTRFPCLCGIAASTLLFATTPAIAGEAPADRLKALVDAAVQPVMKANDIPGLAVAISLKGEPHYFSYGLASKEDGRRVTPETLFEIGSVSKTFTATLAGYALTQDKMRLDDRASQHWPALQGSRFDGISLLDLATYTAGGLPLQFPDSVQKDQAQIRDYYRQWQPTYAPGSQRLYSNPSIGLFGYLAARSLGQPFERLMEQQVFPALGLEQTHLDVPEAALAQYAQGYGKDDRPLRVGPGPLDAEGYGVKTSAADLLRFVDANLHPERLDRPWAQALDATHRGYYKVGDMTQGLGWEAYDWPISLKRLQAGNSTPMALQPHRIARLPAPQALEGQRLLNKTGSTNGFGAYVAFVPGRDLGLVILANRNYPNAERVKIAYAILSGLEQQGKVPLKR

[3] = target: purified class A, C and D enzymes (β-lactamases) (Escherichia coli, UniProt Q9L5C7); test: biochemical; type: biochemical; settings: purified CTX-M-14; nitrocefin (NCF) as reporter substrate
Sequence of purified class A, C and D enzymes (β-lactamases) (Escherichia coli, UniProt Q9L5C7) (Q9L5C7 entry or part of it): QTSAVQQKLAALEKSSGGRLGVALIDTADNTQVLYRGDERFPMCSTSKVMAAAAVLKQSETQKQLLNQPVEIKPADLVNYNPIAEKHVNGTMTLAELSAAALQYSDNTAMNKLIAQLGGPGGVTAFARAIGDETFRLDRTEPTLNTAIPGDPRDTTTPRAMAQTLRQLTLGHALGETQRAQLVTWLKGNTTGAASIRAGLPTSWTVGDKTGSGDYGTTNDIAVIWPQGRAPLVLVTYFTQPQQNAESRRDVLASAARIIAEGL

[4] = target: purified class A, C and D enzymes (β-lactamases) (Klebsiella pneumoniae, UniProt Q6XEC0); test: biochemical; type: biochemical; settings: purified OXA-48; nitrocefin (NCF) as reporter substrate
[5] = target: purified class A, C and D enzymes (β-lactamases) (Klebsiella pneumoniae, UniProt Q9F663); test: biochemical; type: biochemical; settings: purified KPC-2; nitrocefin (NCF) as reporter substrate
[6] = target: purified class A, C and D enzymes (β-lactamases) (Enterobacter cloacae, UniProt P05364); test: biochemical; type: biochemical
Sequence of purified class A, C and D enzymes (β-lactamases) (Enterobacter cloacae, UniProt P05364) (P05364 21-381): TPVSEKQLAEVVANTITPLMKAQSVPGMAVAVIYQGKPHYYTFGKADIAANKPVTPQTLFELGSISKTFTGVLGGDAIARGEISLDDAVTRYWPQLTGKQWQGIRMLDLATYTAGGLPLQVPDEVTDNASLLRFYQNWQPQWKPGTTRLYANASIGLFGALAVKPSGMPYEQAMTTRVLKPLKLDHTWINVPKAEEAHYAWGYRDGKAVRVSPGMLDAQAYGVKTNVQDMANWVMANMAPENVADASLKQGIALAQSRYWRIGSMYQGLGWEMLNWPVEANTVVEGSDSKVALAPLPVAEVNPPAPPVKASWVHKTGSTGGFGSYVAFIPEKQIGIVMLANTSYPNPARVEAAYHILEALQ

ec302 TEM-10 = test: Aztreonam potentiation (MPC@4), strain ec302 TEM-10; settings: minimum BLI concentration inhibiting growth with aztreonam 4 μg/mL; tested up to 40 μg/mL
EC1010 CMY-6 = test: Aztreonam potentiation (MPC@4), strain EC1010 CMY-6; settings: minimum BLI concentration inhibiting growth with aztreonam 4 μg/mL; tested up to 40 μg/mL
KP1004 KPC-2 [7] = test: Aztreonam potentiation (MPC@4), strain KP1004 KPC-2; settings: minimum BLI concentration inhibiting growth with aztreonam 4 μg/mL; tested up to 40 μg/mL
AB1053 OXA-72 = test: Meropenem potentiation (MPC@8), strain AB1053 OXA-72; type: cell-based, Acinetobacter baumannii; settings: minimum BLI concentration inhibiting growth with meropenem 8 μg/mL; tested up to 20 μg/mL
AB1054 OXA-23 = test: Meropenem potentiation (MPC@8), strain AB1054 OXA-23; type: cell-based, Acinetobacter baumannii; settings: minimum BLI concentration inhibiting growth with meropenem 8 μg/mL; tested up to 20 μg/mL
KP1005 CTX-M-14 = test: Tigemonam potentiation (MPC@4), strain KP1005 CTX-M-14; settings: minimum BLI concentration inhibiting growth with tigemonam 4 μg/mL; tested up to 40 μg/mL
KP1086 OXA-48 = test: Biapenem potentiation (MPC@1), strain KP1086 OXA-48; type: cell-based; settings: minimum BLI concentration inhibiting growth with biapenem 1 μg/mL; tested up to 40 μg/mL
Protocol: (§1) Biapenem was present in the test medium at 1 μg/mL. […] Table 3 summarizes the BLI potency of biapenem potentiation (MPC@1) for two strains overexpressing class A (KPC) and class D (OXA-48) carbapenemases. Biapenem MIC for each strain is also shown.

ec308 SHV-5 = test: Aztreonam potentiation (MPC@4), strain ec308 SHV-5; settings: minimum BLI concentration inhibiting growth with aztreonam 4 μg/mL; tested up to 40 μg/mL
ECL1002 = test: Aztreonam potentiation (MPC@4), strain ECL1002; settings: minimum BLI concentration inhibiting growth with aztreonam 4 μg/mL; tested up to 40 μg/mL
KP1004 KPC-2 [8] = test: Biapenem potentiation (MPC@1), strain KP1004 KPC-2; type: cell-based; settings: minimum BLI concentration inhibiting growth with biapenem 1 μg/mL; tested up to 40 μg/mL
Protocol: as §1

KP1010 SHV-12 = test: Aztreonam potentiation (MPC@4), strain KP1010 SHV-12; settings: minimum BLI concentration inhibiting growth with aztreonam 4 μg/mL; tested up to 40 μg/mL
KP1009 CTX-M-15 = test: Aztreonam potentiation (MPC@4), strain KP1009 CTX-M-15; settings: minimum BLI concentration inhibiting growth with aztreonam 4 μg/mL; tested up to 40 μg/mL
[9] = purified Pa-AmpC, nitrocefin (NCF) as reporter substrate, read-out: Ki (Pa-AmpC, NCF)
[10] = purified P99, nitrocefin (NCF) as reporter substrate

SMILES	pKi [1]	pKi [2, 9]	Ki (CTX-M-14, NCF), uM [3]	Ki (OXA-48, NCF), uM [4]	Ki (KPC-2, NCF), uM [5]	Ki (P99, NCF), uM [6, 10]	AZT MPC4 TEM-10 ec302 (ec302 TEM-10)	AZT MPC4 CMY-6 EC1010 (EC1010 CMY-6)	AZT MPC4 KPC-2 KP1004 (KP1004 KPC-2 [7])	MPM MPC8 AB1053 OXA-72 (AB1053 OXA-72)	MPM MPC8 AB1054 OXA-23 (AB1054 OXA-23)	TIG MPC4 CTX-M-14 KP1005 (KP1005 CTX-M-14)	BPM MPC1 OXA-48 KP1086 (KP1086 OXA-48)	AZT MPC4 SHV-5 ec308 (ec308 SHV-5)	AZT MPC4 ECL1002 (ECL1002)	BPM MPC1 KP1004 KPC-2 (KP1004 KPC-2 [8])	AZT MPC4 SHV-12 KP1010 (KP1010 SHV-12)	AZT MPC4 CTX-M-15 KP1009 (KP1009 CTX-M-15)	pKi [2]	Ki (P99, NCF), uM [6]
NC(=O)COc1ccc2c(c1C(=O)O)OB(O)CC2 [Compound 46, 7-(2-Amino-2-oxo-ethoxy)-2-hydroxy-3,4-dihydro-1,2-benzoxaborinine-8-carboxylic acid]	> 7.00	> 7.00	X (X = Ki ≤ 0.1 μM)	X (X = Ki ≤ 0.1 μM)	X (X = Ki ≤ 0.1 μM)	X (X = Ki ≤ 0.1 μM)	X (X = MPC@4 ≤ 5 μg/mL)	X (X = MPC@4 ≤ 5 μg/mL)	X (X = MPC@4 ≤ 5 μg/mL)	X (X = MPC@1 ≤ 5 μg/mL)	Y (Y = 5 μg/mL < MPC@1 ≤ 20 μg/mL)	Z (Z = MPC@4 > 20 μg/mL)	Y (Y = 5 μg/mL < MPC@1 ≤ 20 μg/mL)	X (X = MPC@4 ≤ 5 μg/mL)	X (X = MPC@4 ≤ 5 μg/mL)	X (X = MPC@1 ≤ 5 μg/mL)	X (X = MPC@4 ≤ 5 μg/mL)	X (X = MPC@4 ≤ 5 μg/mL)		
O=C([O-])c1c(O)ccc2c1O[B-](O)(O)CC2.[Na+].[Na+] [Compound 42, Disodium; 4,4,8-trihydroxy-5-oxa-4-boranuidabicyclo[4.4.0]deca-1(6),7,9-triene-7-carboxylate]	6.00 to 7.00		X (X = Ki ≤ 0.1 μM)	X (X = Ki ≤ 0.1 μM)	X (X = Ki ≤ 0.1 μM)		Y (Y = 5 μg/mL < MPC@4 ≤ 20 μg/mL)	Z (Z = MPC@4 > 20 μg/mL)	Y (Y = 5 μg/mL < MPC@4 ≤ 20 μg/mL)	Z (Z = MPC@1 > 20 μg/mL)	Z (Z = MPC@1 > 20 μg/mL)	Z (Z = MPC@4 > 20 μg/mL)	X (X = MPC@1 ≤ 5 μg/mL)	Y (Y = 5 μg/mL < MPC@4 ≤ 20 μg/mL)	Z (Z = MPC@4 > 20 μg/mL)	X (X = MPC@1 ≤ 5 μg/mL)	X (X = MPC@4 ≤ 5 μg/mL)	Z (Z = MPC@4 > 20 μg/mL)	6.00 to 7.00	Y (key: X = Ki ≤ 0.1 μM; Y = 0.1 μM < Ki ≤ 1 μM; Z = Ki > 1 μM)
COc1ccc2c(c1P(=O)(O)O)OB(O)CC2 [Compound 33, (2-Hydroxy-7-methoxy-3,4-dihydro-1,2-benzoxaborinin-8-yl)phosphonic acid]	> 7.00	< 6.00	X (X = Ki ≤ 0.1 μM)	X (X = Ki ≤ 0.1 μM)	Z (Z = Ki > 1 μM)	Y (Y = 0.1 μM < Ki ≤ 1 μM)	Z (Z = MPC@4 > 20 μg/mL)	Y (Y = 5 μg/mL < MPC@4 ≤ 20 μg/mL)	Z (Z = MPC@4 > 20 μg/mL)	Y (Y = 5 μg/mL < MPC@1 ≤ 20 μg/mL)	Y (Y = 5 μg/mL < MPC@1 ≤ 20 μg/mL)	Z (Z = MPC@4 > 20 μg/mL)	X (X = MPC@1 ≤ 5 μg/mL)	Z (Z = MPC@4 > 20 μg/mL)	Z (Z = MPC@4 > 20 μg/mL)	X (X = MPC@1 ≤ 5 μg/mL)	Z (Z = MPC@4 > 20 μg/mL)	Z (Z = MPC@4 > 20 μg/mL)		
COc1ccc2c(c1C(=O)[O-])O[B-](O)(O)[C@@H](CCO)C2.[Na+].[Na+] [Compound 12, Disodium; (3R)-4,4-dihydroxy-3-(2-hydroxyethyl)-8-methoxy-5-oxa-4-boranuidabicyclo[4.4.0]deca-1(6),7,9-triene-7-carboxylate]	6.00 to 7.00		X (X = Ki ≤ 0.1 μM)	X (X = Ki ≤ 0.1 μM)	X (X = Ki ≤ 0.1 μM)		Z (Z = MPC@4 > 20 μg/mL)	Y (Y = 5 μg/mL < MPC@4 ≤ 20 μg/mL)	Y (Y = 5 μg/mL < MPC@4 ≤ 20 μg/mL)	Y (Y = 5 μg/mL < MPC@1 ≤ 20 μg/mL)	Y (Y = 5 μg/mL < MPC@1 ≤ 20 μg/mL)	Z (Z = MPC@4 > 20 μg/mL)	Y (Y = 5 μg/mL < MPC@1 ≤ 20 μg/mL)	Y (Y = 5 μg/mL < MPC@4 ≤ 20 μg/mL)	Y (Y = 5 μg/mL < MPC@4 ≤ 20 μg/mL)	X (X = MPC@1 ≤ 5 μg/mL)	Y (Y = 5 μg/mL < MPC@4 ≤ 20 μg/mL)	Y (Y = 5 μg/mL < MPC@4 ≤ 20 μg/mL)	6.00 to 7.00	X (key: X = Ki ≤ 0.1 μM; Y = 0.1 μM < Ki ≤ 1 μM; Z = Ki > 1 μM)
O=C([O-])c1c(OCCN2CCOCC2)ccc2c1O[B-](O)(O)CC2.[Na+].[Na+] [Compound 27, Disodium; 4,4-dihydroxy-8-(2-morpholinoethoxy)-5-oxa-4-boranuidabicyclo[4.4.0]deca-1(6),7,9-triene-7-carboxylate]	> 7.00		X (X = Ki ≤ 0.1 μM)	X (X = Ki ≤ 0.1 μM)	X (X = Ki ≤ 0.1 μM)		Y (Y = 5 μg/mL < MPC@4 ≤ 20 μg/mL)	X (X = MPC@4 ≤ 5 μg/mL)	X (X = MPC@4 ≤ 5 μg/mL)	Y (Y = 5 μg/mL < MPC@1 ≤ 20 μg/mL)	Y (Y = 5 μg/mL < MPC@1 ≤ 20 μg/mL)	Z (Z = MPC@4 > 20 μg/mL)	Y (Y = 5 μg/mL < MPC@1 ≤ 20 μg/mL)	Y (Y = 5 μg/mL < MPC@4 ≤ 20 μg/mL)	X (X = MPC@4 ≤ 5 μg/mL)	X (X = MPC@1 ≤ 5 μg/mL)	X (X = MPC@4 ≤ 5 μg/mL)	Y (Y = 5 μg/mL < MPC@4 ≤ 20 μg/mL)	6.00 to 7.00	X (key: X = Ki ≤ 0.1 μM; Y = 0.1 μM < Ki ≤ 1 μM; Z = Ki > 1 μM)
O=C([O-])c1ccc2c(c1C(=O)[O-])O[B-](O)(O)CC2.[Na+].[Na+].[Na+] [Compound 53, Trisodium; 4,4-dihydroxy-5-oxa-4-boranuidabicyclo[4.4.0]deca-1(6),7,9-triene-7,8-dicarboxylate]	> 7.00		X (X = Ki ≤ 0.1 μM)	X (X = Ki ≤ 0.1 μM)	X (X = Ki ≤ 0.1 μM)		Y (Y = 5 μg/mL < MPC@4 ≤ 20 μg/mL)	X (X = MPC@4 ≤ 5 μg/mL)	X (X = MPC@4 ≤ 5 μg/mL)	X (X = MPC@1 ≤ 5 μg/mL)	X (X = MPC@1 ≤ 5 μg/mL)	Z (Z = MPC@4 > 20 μg/mL)	X (X = MPC@1 ≤ 5 μg/mL)	Y (Y = 5 μg/mL < MPC@4 ≤ 20 μg/mL)	X (X = MPC@4 ≤ 5 μg/mL)	X (X = MPC@1 ≤ 5 μg/mL)	X (X = MPC@4 ≤ 5 μg/mL)	Y (Y = 5 μg/mL < MPC@4 ≤ 20 μg/mL)	> 7.00	X (key: X = Ki ≤ 0.1 μM; Y = 0.1 μM < Ki ≤ 1 μM; Z = Ki > 1 μM)
